Measured values: patent publication US20230151003A1, “COMPOUNDS AND METHODS OF USE” (Exelixis, Inc., priority 2020, published 2023)
Where a name gives a salt, the structure may show the parent alone.

target: T1, Mer (Homo sapiens, UniProt Q12866); assay: Mer autophosphorylation ELISA in transient transfected 293A cells; type: cell-based; settings: Table 3 Cellular Activities; MERTK-transfected 293A cells, phospho-Mer ELISA
T1 construct: host or cells: 293A cells (Thermo Fisher #R70507)
T1 sequence (Q12866 21-999): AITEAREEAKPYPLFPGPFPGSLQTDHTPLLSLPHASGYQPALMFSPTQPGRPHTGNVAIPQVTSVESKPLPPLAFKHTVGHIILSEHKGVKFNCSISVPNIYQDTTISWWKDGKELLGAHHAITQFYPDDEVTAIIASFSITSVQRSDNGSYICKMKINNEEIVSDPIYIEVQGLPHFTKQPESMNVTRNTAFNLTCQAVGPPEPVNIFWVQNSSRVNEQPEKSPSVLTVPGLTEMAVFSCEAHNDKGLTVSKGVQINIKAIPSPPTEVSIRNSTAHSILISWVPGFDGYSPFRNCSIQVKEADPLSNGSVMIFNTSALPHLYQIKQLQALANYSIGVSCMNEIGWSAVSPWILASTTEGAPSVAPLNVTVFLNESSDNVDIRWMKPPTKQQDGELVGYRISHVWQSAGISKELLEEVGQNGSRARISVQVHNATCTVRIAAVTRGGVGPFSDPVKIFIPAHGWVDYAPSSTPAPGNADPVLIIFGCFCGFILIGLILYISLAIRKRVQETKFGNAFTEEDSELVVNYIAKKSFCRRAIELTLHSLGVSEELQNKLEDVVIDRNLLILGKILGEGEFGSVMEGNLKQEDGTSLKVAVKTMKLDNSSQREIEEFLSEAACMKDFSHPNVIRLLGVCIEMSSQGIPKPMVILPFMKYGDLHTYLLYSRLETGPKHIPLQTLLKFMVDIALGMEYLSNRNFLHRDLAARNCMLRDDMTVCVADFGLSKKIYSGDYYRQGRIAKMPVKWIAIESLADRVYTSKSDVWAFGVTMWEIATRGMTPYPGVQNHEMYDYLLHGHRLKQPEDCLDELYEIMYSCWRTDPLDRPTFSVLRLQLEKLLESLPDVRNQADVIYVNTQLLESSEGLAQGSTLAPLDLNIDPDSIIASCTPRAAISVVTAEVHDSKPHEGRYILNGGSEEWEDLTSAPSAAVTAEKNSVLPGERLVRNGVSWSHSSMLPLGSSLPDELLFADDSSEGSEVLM
Method in brief: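 293A cells transiently transfected with human MERTK DNA, replated after 24 h, then treated 1 h with 8-point compound dilutions in serum-free medium (0.3% DMSO). Lysates assayed by phospho-Mer sandwich ELISA against phospho-Mer standard; DMSO = 100%, reference inhibitor = 0% activity; IC50 by 4-parameter logistic fit.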

IC50, ≤ 100 nM:
COc1cc2nccc(Oc3ccc(NC(=O)c4cnc(C)c(-c5ccnn5C)c4O)cc3F)c2nc1OC [Compound 104]
COc1cnc2c(Oc3ccc(NC(=O)c4c(C)n(C)c(C)c(-c5cccs5)c4=O)cc3)ccnc2c1 [Compound 165, N-[4-[(7-Methoxy-1,5-naphthyridin-4-yl)oxy]phenyl]-1,2,6-trimethyl-4-oxo-5-thiophen-2-ylpyridine-3-carboxamide]
COc1cnc2c(Oc3ccc(NC(=O)c4c(C)n(C)c(C)c(-c5cccs5)c4=O)cc3F)ccnc2c1 [Compound 166, N-[3-Fluoro-4-[(7-methoxy-1,5-naphthyridin-4-yl)oxy]phenyl]-1,2,6-trimethyl-4-oxo-5-thiophen-2-ylpyridine-3-carboxamide]
COc1cnc2c(Oc3ccc(NC(=O)c4cn(CCF)c(C)c(-c5ccsc5)c4=O)cc3F)ccnc2c1 [Compound 330, 1-(2-Fluoroethyl)-N-[3-fluoro-4-[(7-methoxy-1,5-naphthyridin-4-yl)oxy]phenyl]-6-methyl-4-oxo-5-thiophen-3-ylpyridine-3-carboxamide]
C=Cc1ccc(-c2c(C)ncc(C(=O)Nc3ccc(Oc4ccnc5cc(OC)c(OC)nc45)c(F)c3)c2O)o1 [Compound 151, N-[4-[(6,7-Dimethoxy-1,5-naphthyridin-4-yl)oxy]-3-fluorophenyl]-5-(5-ethenylfuran-2-yl)-4-hydroxy-6-methylpyridine-3-carboxamide]
COc1cc2nccc(Oc3ccc(NC(=O)c4cnc(C)c(-c5cc(C(F)(F)F)nn5C)c4O)cc3F)c2nc1OC [Compound 105]
CCc1ccc(-c2c(C)nc(C)c(C(=O)Nc3ccc(Oc4ccnc5cc(OC)c(OC)nc45)c(F)c3)c2O)o1 [Compound 147, N-[4-[(6,7-Dimethoxy-1,5-naphthyridin-4-yl)oxy]-3-fluorophenyl]-5-(5-ethylfuran-2-yl)-4-hydroxy-2,6-dimethylpyridine-3-carboxamide]
COc1cc2nccc(Oc3ccc(NC(=O)c4c(C)nc(C)c(-c5ccc(C6CC6)o5)c4O)cc3F)c2nc1OC [Compound 155B, 5-(5-Cyclopropylfuran-2-yl)-N-[4-[(6,7-dimethoxy-1,5-naphthyridin-4-yl)oxy]-3-fluorophenyl]-4-hydroxy-2,6-dimethylpyridine-3-carboxamide]
COc1cc2nccc(Oc3ccc(NC(=O)c4c(C)nc(C)c(-c5sccc5C)c4O)cc3F)c2nc1OC [Compound 139, N-[4-[(6,7-Dimethoxy-1,5-naphthyridin-4-yl)oxy]-3-fluorophenyl]-4-hydroxy-2,6-dimethyl-5-(3-methylthiophen-2-yl)pyridine-3-carboxamide]
COc1cc2nccc(Oc3ccc(NC(=O)c4cnc(C)c(-c5ccc(C6CC6)o5)c4O)cc3F)c2nc1OC [Compound 155A, 5-(5-Cyclopropylfuran-2-yl)-N-[4-[(6,7-dimethoxy-1,5-naphthyridin-4-yl)oxy]-3-fluorophenyl]-4-hydroxy-6-methylpyridine-3-carboxamide hydrochloride]
COc1cc2nccc(Oc3ccc(NC(=O)c4c(C)n(C)c(C)c(-c5cccs5)c4=O)cc3F)c2nc1OC [Compound 168, N-[4-[(6,7-Dimethoxy-1,5-naphthyridin-4-yl)oxy]-3-fluorophenyl]-1,2,6-trimethyl-4-oxo-5-thiophen-2-ylpyridine-3-carboxamide]
COc1cc2nccc(Oc3ccc(NC(=O)c4cnc(C)c(-c5ccsc5)c4O)cc3F)c2nc1OC [Compound 93, N-[4-[(6,7-Dimethoxy-1,5-naphthyridin-4-yl)oxy]-3-fluoro-phenyl]-4-hydroxy-6-methyl-5-(3-thienyl)pyridine-3-carboxamide]
COc1cc2nccc(Oc3ccc(NC(=O)c4c(C)n(C)c(C)c(-c5ccco5)c4=O)cc3)c2nc1OC [Compound 164, N-[4-[(6,7-Dimethoxy-1,5-naphthyridin-4-yl)oxy]phenyl]-5-(furan-2-yl)-1,2,6-trimethyl-4-oxopyridine-3-carboxamide]
